According to patent US6201006A, “Aromatic amidine derivatives useful as selective thrombin inhibitors” (C & C Research Laboratories, priority 1996, dated 2001):

What was measured:
human thrombin = target: T1, human thrombin (Homo sapiens, UniProt P00734); assay: Inhibitory activity for thrombin (chromogenic substrate hydrolysis, 405 nm); assay type: biochemical; conditions: for Selectivity (trypsin/thrombin): IC50 for trypsin divided by IC50 for thrombin; for IC50: human thrombin, 20 min, pH 8.0, N-benzoyl-Phe-Val-Arg-p-nitroanilide
T1 construct: purchased Sigma T-6759
Experimental: 20 μl of each compound of the present invention was dissolved in 50% methanol in various concentrations and then added to each well of a microplate, to each of which 160 μl of the reaction medium containing 125 mM NaCl, 50 mM Tris-HCl (pH 8.0) and 2 mM synthetic substrate (N-benzoyl-Phe-Val-Arg-p-nitroanilide, Sigma B-7632) were added. 20 μl of human thrombin solution (5 units/ml, Sigma T-6759, manufactured by Sigma Co.) containing 0.1% bovine serum albumin was added to each well to initiate the enzymatic reaction. After 20 minutes, the hydrolysis of substrate was determined by measuring the absorbance at 405 nm. […] The selectivity index was calculated by dividing the IC50 value for trypsin by the IC50 value for thrombin. The thrombin inhibitory activity and the trypsin inhibitory activity for the compound of the present invention are shown in the following Table 2.

trypsin = assay: Inhibitory activity for trypsin; assay type: biochemical

Row | Structure (SMILES) | Selectivity (trypsin/thrombin) (human thrombin) | IC50 (human thrombin) [nM] | IC50 (trypsin) [nM]
1 | CCn1c(CC[C@@H]2CCCN2Cc2c(C(N)=O)sc3ccccc23)cc2ccc(C(=N)N)cc21 [Compound 8] | 48.6 | 9.47 | 460
2 | CCn1c(CC[C@@H]2CCCN2C(=O)Cc2cccc(Cl)c2)cc2ccc(C(=N)N)cc21 [Compound 15] | 30.2 | 20.1 | 608
3 | CCn1c(CC[C@@H]2CCCN2C(=O)C(c2ccccc2)C2CCCC2)cc2ccc(C(=N)N)cc21 (stereo partly drawn) [Compound 30, 1-ethyl-2-[2-[(S)-1-(2-cyclopentyl-2-phenylacetyl)pyrrolidin-2-yl]ethyl]indole-6-carboxamidine] | 46.6 | 9.01 | 420
4 | CCOC(=O)CN[C@@H](C(=O)N1CCC[C@H]1CCc1cc2ccc(C(=N)N)cc2n1CC)c1ccccc1 [Compound 38, ethyl 2-[[(R)-2-[2-[(S)-2-[2-(6-amidino-1ethylindol-2-yl)ethyl]pyrrolidinyl]-2-oxo1-phenyl]ethyl]amino]acetate] | 24.2 | 7.59 | 184
5 | CCOC(=O)C(C(=O)N1CCC[C@H]1CCc1cc2ccc(C(=N)N)cc2n1CC)C1CCCC1 (stereo partly drawn) [Compound 44, ethyl 3-[(S)-2-[2-(6-aminido-1-ethylindol-2-yl)ethyl]pyrrolidinyl]-2-cyclopentyl-3-oxopropanoate] | 33.9 | 9.23 | 313
6 | CCn1c(CC[C@@H]2CCCN2C(=O)CN(C2CC2)S(C)(=O)=O)cc2ccc(C(=N)N)cc21 [Compound 58, 1-ethyl-2-[2-[(S)-1-[2-[cyclopropyl(methylsulfonyl)amino]acetyl]pyrrolidin-2-yl]ethyl]indole-6-carboxamidine] | 17.4 | 3 | 52.2
7 | CCn1c(CC[C@@H]2CCCN2C(=O)[C@H]2CCCN2CC(N)=O)cc2ccc(C(=N)N)cc21 [Compound 114, 1-ethyl-2-[2-[(S)-1-[[(R)-1-(carbamo-ylmethyl)pyrrolidin-2-yl]carbonyl]pyrrolidin-2-yl]ethyl]indole-6-carboxamidine] | 28.8 | 17.4 | 500
8 | CCn1c(CC[C@@H]2CCCN2C(=O)[C@H]2CCCN2C(CCO)C(N)=O)cc2ccc(C(=N)N)cc21 (stereo partly drawn) [Compound 117, 1-ethyl-2-[2-[(S)-1-[[(R)-1-(1-carbamoyl-3-hydroxypropyl)pyrrolidin-2-yl]carbonyl]pyrrolidin-2-yl]-ethyl]indole-6-carboxamidine] | 48.6 | 16.7 | 811
9 | CCn1c(CC[C@@H]2CCCN2C(=O)[C@H]2CCCN2C2CCOC2=O)cc2ccc(C(=N)N)cc21 (stereo partly drawn) [Compound 125, 1-ethyl-2-[2-[(S)-1-[[(R)-1-(2-oxo-3-oxolanyl)pyrrolidin-2-yl]carbonyl]pyrrolidin-2-yl]ethyl]indole-6-carboxamidine] | 34.7 | 22.3 | 775
10 | CCn1c(CC[C@@H]2CCCN2C(=O)[C@H]2CCCN2C(=O)[C@H](C)N)cc2ccc(C(=N)N)cc21 [Compound 143, 1-ethyl-2-[2-[(S)-1-[[(R)-1-((S)-2-aminopropanoyl)pyrrolidin-2-yl]carbonyl]pyrrolidin-2-yl]ethyl]indole-6-carboxamidine] | 75.2 | 5.46 | 410
11 | CCn1c(CC[C@@H]2CCCN2C(=O)[C@H]2CCCN2C(=O)[C@H](C)NS(C)(=O)=O)cc2ccc(C(=N)N)cc21 [Compound 146, 1-ethyl-2-[2-[(S)-1-[[(R)-1-[(S)-2-(methanesulfonylamino)propanoyl]pyrrolidin-2-yl]carbonyl]pyrrolidin-2-yl]-ethyl]indole-6-carboxamidine] | 21.0 | 22.1 | 464
12 | CCn1c(CC[C@@H]2CCCN2C(=O)[C@H]2CCCN2C(=O)[C@@H](N)CC(N)=O)cc2ccc(C(=N)N)cc21 [Compound 148, 1-ethyl-2-[2-[(S)-1-[[(R)-1-((S)-2-amino-3-carbamoylpropanoyl)pyrrolidin-2-yl]carbonyl]pyrrolidin-2-yl]ethyl]indole-6-carboxamidine] | 19.2 | 23 | 443
13 | CCn1c(CCC2CCCN2C(=O)C2CCCN2C(=O)CC(NS(C)(=O)=O)C(N)=O)cc2ccc(C(=N)N)cc21 [Compound 162, 1-ethyl-2-[2-[(S)-1-[[1-[(R)-1-[3-carbamoyl-(S)-3-[(methanesulfonyl)amino]propanoyl]pyrrolidin-2-yl]carbonyl]pyrrolidin-2-yl]ethyl]indole-6-carboxamidine] | 45.0 | 7.3 | 329
14 | CCn1c(CC[C@@H]2CCCN2C(=O)[C@H]2CCCN2C(=O)CCCN)cc2ccc(C(=N)N)cc21 [Compound 166, 1-ethyl-2-[2-[(S)-1-[[(R)-1-(4-aminobutanoyl)pyrrolidin-2-yl]carbonyl]pyrrolidin-2-yl]ethyl]indole-6-carboxamidine] | 18.6 | 33.1 | 617

The next lines start with the values.

Row | Selectivity (trypsin/thrombin) (human thrombin) | IC50 (human thrombin) [nM] | IC50 (trypsin) [nM] | Structure (SMILES)
15 | 17.6 | 18.3 | 322 | CCn1c(CC[C@@H]2CCCN2C(=O)[C@H]2CCCN2C(=O)C2CCCCN2)cc2ccc(C(=N)N)cc21 (stereo partly drawn) [Compound 167, 1-ethyl-2-[2-[(S)-1-[[(R)-1-[(2-piperidyl)carbonyl]pyrrolidin-2-yl]carbonyl]pyrrolidin-2-yl]ethyl]indole-6-carboxamidine]
16 | – | 30.2 | – | CCn1c(CC[C@@H]2CCCN2C(=O)[C@H]2CCCN2C(=O)C2CCNCC2)cc2ccc(C(=N)N)cc21 [Compound 169, 1-ethyl-2-[2-[(S)-1-[[(R)-1-[(4-piperidinyl)carbonyl]pyrrolidin-2-yl]carbonyl]pyrrolidin-2-yl]ethyl]indole-6-carboxamidine]
17 | – | 34.6 | – | CCCC(CCC)C(=O)N1CCC[C@@H]1C(=O)N1CCC[C@H]1CCc1cc2ccc(C(=N)N)cc2n1CC [Compound 173, 1-ethyl-2-[2-[(S)-1-[[(R)-1-(2-propylpentanoyl)pyrrolidin-2-yl]carbonyl]pyrrolidin-2-yl]ethyl]indole-6-carboxamidine]
18 | 25.7 | 16.2 | – | CCOC(=O)CC(=O)N1CCC[C@@H]1C(=O)N1CCC[C@H]1CCc1cc2ccc(C(=N)N)cc2n1CC [Compound 174, ethyl 3-[(R)-2-[[(S)-2-[2-(6-amidino-1-ethylindol-2-yl)ethyl]pyrrolidinyl]carbonyl]pyrrolidinyl]-3-oxopropanoate]
19 | – | 9.92 | – | CCn1c(CC[C@@H]2CCCN2C(=O)[C@H]2CCCN2C(=O)CC(N)=O)cc2ccc(C(=N)N)cc21 [Compound 175, 1-ethyl-2-[2-[(S)-1-[[(R)-1-(2-carbamoylacetyl)pyrrolidin-2-yl]carbonyl]pyrrolidin-2-yl]ethyl]indole-6-carboxamidine]
20 | 20.7 | 21.7 | – | CCOC(=O)CCC(=O)N1CCC[C@@H]1C(=O)N1CCC[C@H]1CCc1cc2ccc(C(=N)N)cc2n1CC [Compound 176, ethyl 4-[(R)-2-[[(S)-2-[2-(6-amidino-1-ethylindol-2-yl)ethyl]pyrrolidinyl]carbonyl]pyrrolidinyl]-4-oxobutanoate]
21 | – | 25.6 | – | CCn1c(CC[C@@H]2CCCN2C(=O)[C@H]2CCC(=O)N2CC(N)=O)cc2ccc(C(=N)N)cc21 [Compound 187, 1-ethyl-2-[2-[(S)-1-[[(R)-1-(carbamoylmethyl)-5-oxo-pyrrolidin-2-yl]carbonyl]pyrrolidin-2-yl]ethyl]indole-6-carboxamidine]
22 | – | 33.8 | – | CCn1c(CC[C@@H]2CCCN2C(=O)C2CCCCN2CC(=O)OC)cc2ccc(C(=N)N)cc21 (stereo partly drawn) [Compound 192, methyl-2-[2-[[(S)-2-[2-(6-amidino-1-ethylindol-2-yl)ethyl]pyrrolidinyl]carbonyl]piperidinyl]acetate]
23 | – | 31.7 | – | CCn1c(CC[C@@H]2CCCN2C(=O)C2CCCNC2)cc2ccc(C(=N)N)cc21 (stereo partly drawn) [Compound 194, 1-ethyl-2-[2-[(S)-1-[(3-piperidinyl)carbonyl]pyrrolidin-2-yl]ethyl]indole-6-carboxamidine]
24 | 14.4 | 37.2 | – | CCOC(=O)C1CCCN1CC(=O)N1CCC[C@H]1CCc1cc2ccc(C(=N)N)cc2n1CC (stereo partly drawn) [Compound 196, ethyl 1-[2-[(S)-2-[2-(6-amidino-1-ethylindol-2-yl)ethyl]pyrrolidinyl]-2-oxoethyl]pyrrolidine-2-carboxylate]
25 | – | 11.4 | – | CCOC(=O)Cn1c(CC[C@@H]2CCCN2C(=O)[C@H]2CCCN2C(C)=O)cc2ccc(C(=N)N)cc21 [Compound 222, ethyl 2-[2-[2-[(S)-1-[((R)-1-acetylpyrrolidin-2-yl)carbonyl]pyrrolidin-2-yl]ethyl]-6-amidinoindolyl]acetate]
26 | – | 24.1 | – | CC(=O)N1CCC[C@@H]1C(=O)N1CCC[C@H]1CCc1cc2ccc(C(=N)N)cc2n1CC(N)=O [Compound 224, 2-[2-[(S)-1-[((R)-1-acetylpyrrolidin-2-yl)carbonyl]pyrrolidin-2-yl]ethyl]-1-(carbamoylmethyl)indole-6-carboxamidine]
27 | – | 53.6 | – | N=C(N)c1ccc2cc(CC[C@H]3CCCN3C(=O)Cc3ccccc3)ccc2c1 [Compound 244, 6-[2-[(S)-1-(2-phenylacetyl)pyrrolidine-2-yl]ethyl]naphthalene-2-carboxamidine]
